These results are taken from patent publication US9278991B2, “Anhydrous polymorphs of [(2R,3S,4R,5R)-5-(6-(cyclopentylamino)-9H-purin-9-yl)-3,4-dihydroxytetrahydrofuran-2-yl)} methyl nitrate and processes of preparation thereof” (Inotek Pharmaceuticals Corporation, priority 2012, dated 2016).

Holding throughout (type): physicochemical
Data set [1] can be described thus: Curing (ripening) of Compound A aqueous suspension at 40 degrees C: conversion of form A1 to A2, followed by particle size, XRPD and microphotography. How it is done: XRPD patterns were obtained using a high-throughput XRPD set-up. The plates were mounted on a Bruker GADDS diffractometer equipped with a Hi-Star area detector. The XRPD platform was calibrated using Silver Behenate for the long d-spacings and Corundum for the short d-spacings.
Data collection was carried out at room temperature using monochromatic CuKα radiation in the 2-theta region between 1.5 degrees and 41.5 degrees, which is the most distinctive part of the XRPD pattern between the polymorph forms. The diffraction pattern of each well was collected in 2 theta ranges (1.5 degrees≦2 theta≦21.5 degrees for the first frame, and 19.5 degrees≦2 theta≦41.5 degrees for the second) with an exposure time of 30 seconds for each frame. No background subtraction or curve smoothing was applied to the XRPD patterns. The carrier material used during XRPD analysis was transparent to X-rays and contributed only slightly to the background.
As described above the Form A1 can be obtained predominantly via recrystallization from ethanol or under slow evaporation conditions. It has also been established that ripening or curing of Compound A particles suspended in an aqueous suspension formulated for ocular delivery at 40 degrees C. for a relatively short period of time formed polymorph form A2 from polymorph form A1. The aqueous suspension samples were kept at 40 degrees C. for up to 108 hours and monitored by particle size measurement, XRPD and microphotography. […] XRPD analyses indicated a change in polymorph content from about 74% A1 to 26% A2 at time zero to 0% A1 to 100% A2 at 108 hours at 40 degrees C. […] Also, habit changes coupled with A2 growth were reflected in the XRPD patterns and could be monitored by a difference in selected peak intensities from planes within the crystal lattice perpendicular to the c axis that change in intensity as the habit of the crystal changes.
(§1) The particle size analyses were performed on a Cilas 1180 Particle Size Analyzer. The parameters used were liquid mode, sample refractive index=1.62 (determined using Cargille immersion oils), liquid refractive index=1.333 (value for water), 30 second measurement, 180 rpm stifling, 120 rpm pump circulation, no sonication, 5 repeat measurements.

A short description of data set [2]: Storage of aqueous suspension ocular formulation containing Compound A in the A1 polymorph at 2-8° C. How it is done:
When the aqueous suspension ocular formulation containing Compound A in the A1 polymorph is stored at 2-8° C., a temperature required to limit decomposition of Compound A over long term storage, the habit of the suspended particles changes slowly over a period of 6 to 12 months. During this time the small irregular particles of suspended drug change to rod-like habits, with many particles having a length along the longest dimension over 100 microns.

A short description of data set [3]: Long term stability and particle size growth of cured (A2) aqueous formulation lots at 5 and 25 degrees Celsius. To be noted: aqueous suspension, 6 month period at either 5° C. or 25° C. How it is done:
as §1
A batch of sterile material of Compound A was prepared as described above under the “Synthesis of Compound A”. The resulting Compound A material was then sterilized with gamma irradiation at up to 40 kGray and then formulated into the following aqueous formulations: […]
Various concentrations of Compound A formulation lots were prepared from 0.152, 0.30, 0.61, 0.91, 2.42, 0.46, 0.76%, W/V to provide for the ability to deliver different levels of Compound A per drop of formulation. For example one drop of the 0.152%, W/V of compound A would deliver 50 mcg per drop, 0.30%, W/V would deliver 100 mcg per drop, right through to 0.76% W/V delivering 250 mcg per drop. The formulation lots were then heated to undergo the curing step and convert the A1 polymorph form of Compound A to the A2 polymorph form of Compound A. The curing step was undertaken by placing the formulation lots at 40 degrees C. for 48 hours and then reverting the formulations lots to the desired longer term storage conditions for stability studies. […]

`O=[N+]([O-])OC[C@H]1O[C@@H](n2cnc3c(NC4CCCC4)ncnc32)[C@H](O)[C@@H]1O` [Compound A, [2R,3S,4R,5R)-5-(6-(cyclopentylamino)-9H-purin-9-yl)-3,4-dihydroxytetrahydrofuran-2-yl)] methyl nitrate]: the “average particle size change” value in data set [1] (40 degrees C, after 15 hours to 108 hours) is recorded as “remained effectively constant”; in data set [1] (40 degrees C, over 15 hours), “increased significantly”. Moreover, the “time over which XRPD peak intensity differences (crystal habit) changed” value in data set [1] (40 degrees C, constant thereafter) is recorded as “up to 9 hours”. Besides, the figures for the “polymorph content A1 (XRPD)” value in data set [1] (108 hours at 40 degrees C) and in data set [1] (time zero) were 0% and “about 74%”, respectively. Further, the “polymorph content A2 (XRPD)” value in data set [1] (108 hours at 40 degrees C) is on record as 100%; in data set [1] (time zero) it was approximately 26%.

With `O=[N+]([O-])OC[C@H]1O[C@@H](n2cnc3c(NC4CCCC4)ncnc32)[C@H](O)[C@@H]1O` [Form A1], the “resuspendability by sonication and shaking” value in data set [2] (aqueous suspension after habit change at 2-8° C) is given as “much more difficult to resuspend”. Also, the “particle length along the longest dimension (many particles)” value in data set [2] (aqueous suspension stored at 2-8° C, 6 to 12 months) is recorded as “over 100 microns”.

As for `O=[N+]([O-])OC[C@H]1O[C@@H](n2cnc3c(NC4CCCC4)ncnc32)[C@H](O)[C@@H]1O` [Form A2], the “changes to particle habit, size or polymorph content on storage” value in data set [3] is reported as “limit any further changes”.
